From US20060057069A1, “Detection of protein expression in vivo using fluorescent puromycin conjugates” (CALIFORNIA INSTITUTE OF TECHNOLOGY, priority 2004, published 2006)
Structures can show the parent of a compound that is named as a salt. Where two headings read alike, the source gives them in different places.

Columns and labels:
[1] = tested on: cultured hippocampal neurons; test: F2P (fluorescein-dC-puromycin) reporter of endogenous protein synthesis in cultured hippocampal neurons; type: cell-based, rat; conditions: for effect of co-application on basal F2P fluorescence in dendrites: co-application with F2P
Method: Dissociated hippocampal neurons were prepared and maintained as previously described. Briefly, hippocampi from postnatal day 2 Sprague-Dawley rat pups were enzymatically and mechanically dissociated and plated into poly-lysine coated glass-bottom petri dishes (Mattek). Neurons were maintained for 14-21 days at 37° C. in growth medium (Neurobasal A supplemented with B27 and Glutamax-1, Invitrogen).
All images were acquired with an Olympus IX-70 confocal laser scanning microscope running Fluoview software (Olympus America, Inc). GFP, Alexa 488, and F2P were excited with the 488 nm line of an argon ion laser, and emitted light was collected between 510 and 550 nm. Alexa 568 was excited with the 568 nm line of a krypton ion laser, and emitted light was collected above 600 nm. In experiments where two channels were acquired simultaneously, settings were chosen to ensure no signal bleed-through between channels. For between-dish comparisons on a given day, all images were acquired at the same settings, without knowledge of the experimental condition during image acquisition. All post-acquisition processing and analysis was carried out with ImageJ (NIH) and Matlab (The MathWorks, Inc.). To facilitate the analysis of fluorescence signal as a function of distance from the soma, dendrites were linearized and extracted from the full-frame image using a modified version of the Straighten plugin for ImageJ.
To determine whether D1/D5 receptors activate the translation of endogenous mRNAs in living neurons, fluorescein-dC-puromycin (F2P), a novel protein synthesis reporter based on the peptidyl transferase inhibitor puromycin [35] was used. Because puromycin is a structural analog of an amino-acyl tRNA molecule, it enters ribosomes actively engaged in translation where it becomes covalently attached to the carboxy-terminus of nascent proteins through a peptide linkage. Initially, whether F2P can serve as a protein synthesis reporter in cultured hippocampal neurons was examined (FIGS. 11A, B). […] (FIG. 11B).

16610D9 thymocyte cells [2] = test: Western analysis of treated cells with anti-fluorescein antibody; type: cell-based, mouse; conditions: conjugates 25 μM; anisomycin 250 ng/mL
Method: Live cell number was determined using trypan blue exclusion dye and each sample was adjusted to contain an equal number of live cells. Cell pellets were resuspended in 2× lysis buffer (100 mM β-glycerophosphate, 3 mM EGTA, 2 mM EDTA, 0.2 mM sodium-orthovanadate, 2 mM DTT, 20 μg/ml aprotinin, 20 μg/ml leupeptin, 50 μg/ml trypsin inhibitor, and 4 μg/ml pepstatin, and 1% Triton X-100) and incubated on ice for 30 min. Cell debris was removed by centrifugation at 20,000×g for 30 min. Cell lysate was combined with SDS loading buffer (0.12 M Tris-Cl (pH 6.8), 20% glycerol, 4% (w/v) SDS, 2% (v/v) β-mercaptoethanol, and 0.001% bromophenol blue) and heated at 90° C. for 10 min. Samples were applied entirely to a 4% stacking portion of a 10% glycine-SDS-polyacrylamide gel (30 mA for 1 h, 30 min). Protein was transferred using standard Western transfer techniques and the blot was probed with an anti-fluorescein antibody followed by an anti-rabbit-horseradish peroxidase conjugate (Pierce chemicals). The chemiluminescence reaction was carried out using the ECL PLUS Western Blotting […] System (Amersham BioSciences).
Action of puromycin and the conjugates should result in proteins bearing these compounds at their C-terminus in vivo. Western blot analysis of cellular lysates was chosen to examine if incorporation occurred in vivo and compare the resulting signal with the control conjugates. […]

dopamine D1/D5 receptor = test: GFP protein synthesis reporter imaging in cultured hippocampal neurons; type: cell-based, rat; conditions: co-application with SKF
Method: Dissociated hippocampal neurons were prepared and maintained as previously described [34]. Briefly, hippocampi from postnatal day 2 Sprague-Dawley rat pups were enzymatically and mechanically dissociated and plated into poly-lysine coated glass-bottom petri dishes (Mattek). Neurons were maintained for 14-21 days at 37° C. in growth medium (Neurobasal A supplemented with B27 and Glutamax-1, Invitrogen).
All images were acquired with an Olympus IX-70 confocal laser scanning microscope running Fluoview software (Olympus America, Inc). GFP, Alexa 488, and F2P were excited with the 488 nm line of an argon ion laser, and emitted light was collected between 510 and 550 nm. Alexa 568 was excited with the 568 nm line of a krypton ion laser, and emitted light was collected above 600 nm. […] To facilitate the analysis of fluorescence signal as a function of distance from the soma, dendrites were linearized and extracted from the full-frame image using a modified version of the Straighten plugin for ImageJ.
Dendrites were analyzed for time-lapse as follows: fluorescence was averaged across the width of linearized dendrites, generating a vector of mean pixel intensities equal to the length of the dendrite, ΔF/F (Ftn-Ft0/Ft0) was then computed at each pixel along the dendritic length. […]

D1/D5 receptors = test: Miniature excitatory postsynaptic currents (mEPSCs) in cultured hippocampal neurons; type: cell-based, rat; conditions: anisomycin with DHX; PKI6-22 in the recording pipette
Excerpt: Given the increase in the total and synaptic GluRl population, the effects of dopamine agonists on synaptic transmission was examined. To monitor synaptic strength before and after exposure to a dopamine agonist, miniature excitatory postsynaptic currents (mEPSCs) in cultured hippocampal neurons were examined.

[3] = tested on: 16610D9 cells infected with MIG; test: Killing of MIG-infected (no PAC resistance) cells, flow cytometry; type: cell-based, mouse; conditions: long exposure, 48 h incubation
Method: (§1) The PAC gene was cloned into MIG using BgII and EcoRI restriction sites to yield MIGPAC. 293T-HEK fibroblasts (American Tissue Culture Collection) were co-transfected with pECL-Eco [30] and MIG or MIGPAC by calcium phosphate precipitation. After 12 hours, the precipitate was removed, cells were washed once with PBS, and 4 mL of fresh complete Dulbecco's Modified Eagle Medium (DMEM) supplemented with 10% fetal calf serum (FCS). Viral supernatant was removed 24 hours later and used in infection of 16610D9 cells. One million D9 cells were spin-infected with 0.4 mL of viral supernatant suplemented with 5 μg/ml Polybrene (Sigma-Aldrich).
(§2) 16610D9 cells infected with either MIG of MIGPAC were cultured in RPMI media with 10% FBS and grown at […] in a humidified atmosphere with 5% CO2. For each experiment, 16610D9 cells (0.25×10^6/well) were added to 24-well microtiter plates along with puromycin, puromycin-conjugate, and control molecules dissolved in the minimum amount of either media or PBS. After a 48 h incubation, the cells were washed twice in 2 mL PBS+4% FCS and resuspended in PBS+4% FCS supplemented with 2% formaldehyde along with incubation at 37° C. for 10 min. […]
(§3) Foreign genes can be inserted into D9 cells by infection with a viral vector (see Experimental Procedures). […] MIG expresses GFP so that infection efficiency can be monitored by GFP fluorescence (FIG. 7A). […]

[4] = tested on: 16610D9 cells infected with MIGPAC; test: Enrichment of GFP(+) MIGPAC-infected (PAC-expressing) cells, flow cytometry; type: cell-based, mouse; conditions: 48 h; 4.3% GFP-positive before treatment
Method: as §1, §2, §3

16610D9 thymocyte cells [5] = test: Detection of protein synthesis events in live cells by flow cytometry (fluorescence labeling); type: cell-based
Method: 16610D9 cells (0.5 million mL^−1) were combined with the various puromycin conjugates and control molecules resuspended in the minimum volume of PBS or media as described above. After a 24 h incubation, the cells were washed twice in 2 mL PBS+4% FCS and resuspended in PBS+4% FCS supplemented with 2% formaldehyde followed by incubation at 37° C. for 10 min or used directly after washing for immediate flow cytometry analysis.
In order to analyze the activity of puromycin conjugates in vivo, choosing of both an appropriate cell line and an appropriate quantitation and detection scheme was needed. While microscopy is a powerful means to analyze individual cells and small sections of tissue, performance of experiments where thousands to millions of cells could be examined for protein labeling was desired. Therefore, flow cytometry was chosen as the primary means to analyze uptake and incorporation of the conjugates. In addition to providing a quantitative measure of fluorescence and cell size, flow cytometry methods enable live cells and dead cells to be readily distinguished.

globin translation [6] = conditions: previously shown, ref [14]; read-out: IC50 (in vitro translation inhibition) from reference [14]; cited from earlier work
globin translation [7] = test: In vitro potency determination: inhibition of globin mRNA translation in rabbit reticulocyte lysate; type: biochemical; conditions: read-out: IC50: concentration of puromycin conjugate required for 50% inhibition of globin translation, 30° C. 60 min, standard error <5% in replicates
Method: Translation reactions containing [^35S]Met were mixed in batch on ice and added in aliquots to microcentrifuge tubes containing an appropriate amount of puromycin conjugate (or control molecule) dried in vacuo. […] Inhibitor, lysate preparation (including all components except template), and globin mRNA were mixed simultaneously and incubated at 30° C. for 60 min. Each reaction (2 μL) was combined with 8 μL of tricine loading buffer (80 mM Tris-Cl (pH 6.8), 200 mM DTT, 24% (v/v) glycerol, 8% sodium dodecyl sulfate (SDS), and 0.02% (w/v) Coomassie blue G-250), heated to 90° C. for 5 min, and applied entirely to a 4% stacking portion of a 15% tricine-SDS-polyacrylamide gel containing 20% (v/v) glycerol [29] (30 mA for 1 h, 30 min). Gels were fixed in 10% acetic acid (v/v) and 50% (v/v) methanol, dried, exposed overnight on a Phosphorlmager screen, and analyzed using a Storm Phosphorlmager (Molecular Dynamics).
Initial analysis began by examining the activity of each of the conjugates in vitro for their ability to inhibit protein translation.

[8] = 24 h incubation, conjugates at 50 μM, live-cell gate

For `Oc1cc2c(cc1O)[C@H]1c3ccccc3CN[C@@H]1CC2` (racemic) [DHX, dihydrexidine], the “F2P incorporation in locally perfused dendrites compared to control dendrites” value ([1]; perfused 15 minutes on dendritic segment, p<0.05, n=8 dendrites) was “significantly greater F2P incorporation”.

With `COc1ccc(C[C@H]2NC[C@H](O)[C@H]2OC(C)=O)cc1` [anisomycin] the “incorporation into cellular protein (anti-fluorescein Western signal)” value (16610D9 thymocyte cells [2]) was “essentially no signal”, the “effect of co-application on the effects of SKF on GFP signal” value (dopamine D1/D5 receptor) was “completely prevented” and the “effect of co-application on basal F2P fluorescence in dendrites” value [1] was “significantly attenuated”. For the same compound, the “effect on DHX-produced enhancement of F2P incorporation” value ([1]; preincubation and perfusion with anisomycin, p<0.01) was “completely blocked” and the “effect on DHX-induced increase in mEPSC frequency” value (D1/D5 receptors) was “completely prevented”.

With `COc1ccc(C[C@H](N)C(=O)N[C@H]2[C@@H](O)[C@H](n3cnc4c(N(C)C)ncnc43)O[C@@H]2CO)cc1` [puromycin, L-Puromycin hydrochloride] the “effect on MIG infected cells (killing)” value [3] was “almost complete killing of both GFP-positive and GFP-negative cells”, the “GFP-positive cells in population after treatment” value [4] was 94% and the “effect of co-application on basal F2P fluorescence in dendrites” value [1] was “significantly attenuated”.

In the case of Fluorescein-puromycin [FP], the “rank order of fluorescence enhancement” value (16610D9 thymocyte cells [5]; [8]) is given as “DMT-F2P-Me (12)>FB2P (1)˜BF2P (8)>F2P (4)˜F2P-Me (10)>FP”, the “relative level of fluorescence enhancement” value (16610D9 thymocyte cells [5]; [8]) is given as “small fluorescence enhancement” and the IC50 (globin translation [6]) is given as 120 µM.

For biotin-dC-puromycin, the IC50 (globin translation [6]) is given as 11 µM.

In the case of biotin-puromycin, the IC50 (globin translation [6]) is listed as 54 µM.

For fluorescein-dC-puromycin [F2P], the IC50 (globin translation [7]) was 22 µM, the “enhanced fluorescence relative to the F2A control molecule” value (16610D9 thymocyte cells [5]; 5 μM and 25 μM, live cell population) was “up to 4 fold” and the “effect on cell viability” value (16610D9 thymocyte cells [5]; 5 μM and 25 μM, F2P statement for 48 hours incubation) was “kills the majority of cells”. For the same compound, the “rank order of fluorescence enhancement” value (16610D9 thymocyte cells [5]; [8]) was “DMT-F2P-Me (12)>FB2P (1)˜BF2P (8)>F2P (4)˜F2P-Me (10)>FP” and the “F2P reporter fluorescence in neurons” value ([1]; brief (˜15 min) bath application) was “fluorescence detected in both the cell body and the dendrites”.
